{"source": "patent US4617290A", "about": "“Synergistine derivatives, their preparation and pharmaceutical compositions containing them” (Rhone-Poulenc Sante, priority 1983, dated 1986)", "assay_type": "physicochemical", "procedure": "The new compounds of the invention have the considerable advantage of being soluble or capable of being solubilized in water, either in the form of parent substances or in the form of salts, at therapeutically useful levels, while at the same time retaining the general spectrum of antibacterial activity of synergistines. They are especially active in vitro against Staphylococcus aureus Smith at concentrations of between 8 and 125 μg/ml. A 10% aqueous solution of 5γ-deoxy-5γ-(3-dimethylaminopropyl)aminopristinamycin IA (product A) in the form of the hydrochloride is obtained with: […]"}
{"substance": "5γ-[N-(carboxymethyl)-methylamino]-5γ-deoxypristinamycin IA [product K]", "values": [{"measurement": "concentration of aqueous solution obtained", "result": 2, "unit": "%"}]}
